Reference: US10597388B2, “Pyridazinone herbicides” (FMC CORPORATION, priority 2014, dated 2020)

Assays:
Type in all cases: in vivo
[1] = tested on: corn (Zea mays); test: Test A greenhouse herbicide test, pre- and postemergence; settings: Postemergence
Outline: (§1)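 Visual injury ratings, 0 (no effect) to 100 (complete control), versus untreated plants after roughly 10 d in a greenhouse. Compounds, formulated in a surfactant-containing non-phytotoxic solvent, were sprayed on loam–sand soil after sowing (pre) or on one- to two-leaf plants 2–10 cm tall (post).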

[2] = tested on: kochia (Kochia scoparia); test: as above
Outline: as §1

[3] = tested on: wheat (Triticum aestivum); test: as above; settings: Postemergence
Outline: as §1

[4] = tested on: barnyardgrass (Echinochloa crus-galli); test: as above
Outline: as §1

[5] = tested on: foxtail, giant (giant foxtail, Setaria faberii); test: as above
Outline: as §1

[6] = tested on: pigweed (Amaranthus retroflexus); test: as above
Outline: as §1

[7] = tested on: ragweed (common ragweed, Ambrosia elatior); test: as above
Outline: as §1

[8] = tested on: ryegrass, Italian (Italian ryegrass, Lolium multiflorum); test: as above
Outline: as §1

[9] = tested on: ducksalad (Heteranthera limosa); test: Test B flooded paddy test; settings: 250 g ai/ha, Flood; visual rating on scale of 0 to 100 where 0 is no effect and 100 is complete control; 13 to 15 d after treatment
Outline: (§2)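 Ratings use a 0-100 visual scale, where 100 is complete control, and compare treated plants with controls after 13 to 15 d of greenhouse growth. Compound went straight into paddy water kept 3 cm over the soil surface, applied to seedlings at the 2-leaf stage.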

[10] = tested on: sedge, umbrella (small-flower umbrella sedge, Cyperus difformis); test: Test B flooded paddy test; settings: 250 g ai/ha, Flood; visual rating on scale of 0 to 100 where 0 is no effect and 100 is complete control; 13 to 15 d after treatment
Outline: as §2

[11] = tested on: rice (Oryza sativa); test: Test B flooded paddy test; settings: 250 g ai/ha, Flood; visual rating on scale of 0 to 100 where 0 is no effect and 100 is complete control; 13 to 15 d after treatment
Outline: as §2

[12] = tested on: barnyardgrass (Echinochloa crus-galli); test: Test B flooded paddy test; settings: 250 g ai/ha, Flood; visual rating on scale of 0 to 100 where 0 is no effect and 100 is complete control; 13 to 15 d after treatment
Outline: as §2

[13] = tested on: galium (catchweed bedstraw, Galium aparine); test: Test A greenhouse herbicide test, postemergence
Outline: (§3)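 Seedlings in a loam soil and sand mix received formulated compound postemergence at the one- to two-leaf stage. Greenhouse holding lasts approximately 10 d, then injury is scored visually relative to untreated plants, 0 meaning no effect and 100 complete control.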

[14] = tested on: blackgrass (Alopecurus myosuroides); test: Test A greenhouse herbicide test, postemergence
Outline: as §3

[15] = 125 g ai/ha, 0 to 100 scale, 0 no effect, 100 complete control
[16] = 500 g ai/ha, visual rating after approx. 10 d, 0 to 100 scale (0 no effect, 100 complete control)
[17] = Postemergence, 125 g ai/ha, 0 to 100 scale, 0 no effect, 100 complete control
[18] = Postemergence, 500 g ai/ha, visual rating after approx. 10 d, 0 to 100 scale (0 no effect, 100 complete control)
[19] = Preemergence, 125 g ai/ha, visual injury rating, 0 to 100 scale (0 no effect, 100 complete control), approx. 10 d
[20] = Preemergence, 500 g ai/ha, 0 to 100 scale where 0 is no effect and 100 is complete control

Row | SMILES | Plant response rating, Corn [1, 15] | Plant response rating, Corn [1, 16] | Plant response rating, Kochia [2, 17] | Plant response rating, Kochia [2, 18] | Plant response rating, Kochia [2, 19] | Plant response rating, Kochia [2, 20] | Plant response rating, Wheat [3, 15] | Plant response rating, Wheat [3, 16] | Plant response rating, Barnyardgrass [4, 17] | Plant response rating, Barnyardgrass [4, 18] | Plant response rating, Barnyardgrass [4, 19] | Plant response rating, Barnyardgrass [4, 20] | Plant response rating, Foxtail, Giant [5, 17] | Plant response rating, Foxtail, Giant [5, 18] | Plant response rating, Foxtail, Giant [5, 19] | Plant response rating, Foxtail, Giant [5, 20] | Plant response rating, Pigweed [6, 17] | Plant response rating, Pigweed [6, 18] | Plant response rating, Pigweed [6, 19] | Plant response rating, Pigweed [6, 20] | also measured
1 | CC(=O)Oc1c(C)nn(C)c(=O)c1-c1ccc(Cl)c2ccccc12 [Compound 157] | 0 | 40 | 100 | 100 | 100 | 100 | 0 | 50 | 50 | 80 | 70 | 90 | 60 | 80 | 50 | 80 | 90 | 100 | 100 | 100 | Plant response rating, Ragweed [7, 17]: 100; Plant response rating, Ragweed [7, 18]: 100; Plant response rating, Ragweed [7, 19]: 60; Plant response rating, Ragweed [7, 20]: 90; Plant response rating, Ryegrass, Italian [8, 17]: 100; Plant response rating, Ryegrass, Italian [8, 18]: 100; Plant response rating, Ryegrass, Italian [8, 19]: 100; Plant response rating, Ryegrass, Italian [8, 20]: 100; Plant response rating, Ducksalad [9]: 0; Plant response rating, Sedge, Umbrella [10]: 75; Plant response rating, Rice [11]: 0; Plant response rating, Barnyardgrass [12]: 20; Plant response rating, Galium [13, 15]: 100; Plant response rating, Galium [13, 16]: 100; Plant response rating, Blackgrass [14, 15]: 60; Plant response rating, Blackgrass [14, 16]: 70
2 | Cc1ccc2sc(C)c(-c3c(OCC#N)c(C)nn(C)c3=O)c2c1 [Compound 160] | 0 | 0 | 30 | 60 | 20 | 20 | 0 | 0 | 10 | 20 | 10 | 10 | 10 | 20 | 10 | 30 | 80 | 90 | 50 | 100 | Plant response rating, Ragweed [7, 17]: 70; Plant response rating, Ragweed [7, 18]: 80; Plant response rating, Ragweed [7, 19]: 30; Plant response rating, Ragweed [7, 20]: 80; Plant response rating, Ryegrass, Italian [8, 17]: 30; Plant response rating, Ryegrass, Italian [8, 18]: 90; Plant response rating, Ryegrass, Italian [8, 19]: 20; Plant response rating, Ryegrass, Italian [8, 20]: 80; Plant response rating, Ducksalad [9]: 0; Plant response rating, Sedge, Umbrella [10]: 0; Plant response rating, Rice [11]: 0; Plant response rating, Barnyardgrass [12]: 0; Plant response rating, Galium [13, 15]: 70; Plant response rating, Galium [13, 16]: 90; Plant response rating, Blackgrass [14, 15]: 10; Plant response rating, Blackgrass [14, 16]: 20
3 | Cc1nn(C)c(=O)c(-c2c([N+](=O)[O-])ccc3ccccc23)c1OC(=O)C(C)(C)C [Compound 163] | 0 | 0 | 0 | 20 | 0 | 0 | 0 | 0 | 0 | 0 | 0 | 0 | 0 | 0 | 0 | 0 | 0 | 20 | 30 | 70 | Plant response rating, Ragweed [7, 17]: 0; Plant response rating, Ragweed [7, 18]: 0; Plant response rating, Ragweed [7, 19]: 0; Plant response rating, Ragweed [7, 20]: 0; Plant response rating, Ryegrass, Italian [8, 17]: 20; Plant response rating, Ryegrass, Italian [8, 18]: 70; Plant response rating, Ryegrass, Italian [8, 19]: 10; Plant response rating, Ryegrass, Italian [8, 20]: 50; Plant response rating, Ducksalad [9]: 0; Plant response rating, Sedge, Umbrella [10]: 0; Plant response rating, Rice [11]: 0; Plant response rating, Barnyardgrass [12]: 0; Plant response rating, Galium [13, 15]: 30; Plant response rating, Galium [13, 16]: 60; Plant response rating, Blackgrass [14, 15]: 0; Plant response rating, Blackgrass [14, 16]: 20
4 | Cc1n[nH]c(=O)c(-c2cccc3ccccc23)c1O [Compound 169] | 0 | 30 | 40 | 100 | 20 | 90 | 0 | 30 | 0 | 20 | 0 | 30 | 0 | 30 | 0 | 30 | 20 | 70 | 50 | 100 | Plant response rating, Ragweed [7, 17]: 0; Plant response rating, Ragweed [7, 18]: 80; Plant response rating, Ragweed [7, 19]: 0; Plant response rating, Ragweed [7, 20]: 20; Plant response rating, Ryegrass, Italian [8, 17]: 70; Plant response rating, Ryegrass, Italian [8, 18]: 100; Plant response rating, Ryegrass, Italian [8, 19]: 80; Plant response rating, Ryegrass, Italian [8, 20]: 100; Plant response rating, Ducksalad [9]: 0; Plant response rating, Sedge, Umbrella [10]: 0; Plant response rating, Rice [11]: 0; Plant response rating, Barnyardgrass [12]: 0; Plant response rating, Galium [13, 15]: 30; Plant response rating, Galium [13, 16]: 70; Plant response rating, Blackgrass [14, 15]: 10; Plant response rating, Blackgrass [14, 16]: 20
5 | Cc1nn(C)c(=O)c(-c2c(C)sc3ccccc23)c1OC(=O)N1CCOCC1 [Compound 170] | 0 | 0 | 0 | 70 | 0 | 0 | 0 | 0 | 0 | 10 | 0 | 0 | 0 | 10 | 0 | 0 | 70 | 80 | 30 | 100 | Plant response rating, Ragweed [7, 17]: 40; Plant response rating, Ragweed [7, 18]: 80; Plant response rating, Ragweed [7, 19]: 0; Plant response rating, Ragweed [7, 20]: 20; Plant response rating, Ryegrass, Italian [8, 17]: 0; Plant response rating, Ryegrass, Italian [8, 18]: 50; Plant response rating, Ryegrass, Italian [8, 19]: 0; Plant response rating, Ryegrass, Italian [8, 20]: 40; Plant response rating, Ducksalad [9]: 0; Plant response rating, Sedge, Umbrella [10]: 60; Plant response rating, Rice [11]: 0; Plant response rating, Barnyardgrass [12]: 0; Plant response rating, Galium [13, 15]: 40; Plant response rating, Galium [13, 16]: 80; Plant response rating, Blackgrass [14, 15]: 0; Plant response rating, Blackgrass [14, 16]: 10
